{"source": "patent US12553028B2", "about": "“Method to generate induced oligodendrocyte-lineage cells and treatment using such cells” (ACADEMIA SINICA, priority 2018, dated 2026)", "key": {"[1]": {"test_system": "human primary skin fibroblasts", "test": "Generation of induced OLGs from skin fibroblasts by chemical treatment (morphology / conversion)", "type": "cell-based", "conditions": "for morphology of induced OLGs when replacing VPA: replaces VPA at the first step induction, compared to the original cocktail", "procedure": "(§1) Cells (1×10^4) were plated on each well of a 24-well plate. Culture in HG-DMEM (Life technologies) supplement with 10% fetal bovine serum (FBS) (Hyclone) for 2 days, replace the medium with Knockout medium supplement with 1% N2 supplement, 1% Albumax, 1% NEAA (treatment medium, all form Life technologies) or DMEM/F12 with 1% N2, 1% B27, 20 ng/mL PDGF-AA, EGF, bFGF and 10 ng/mL NT3 and added the different treatment chemical compound cocktails, The final condition are 3 mM Valproic acid for 2 days, 10 μM Y27632, 10 μM SU9516, 10 μM Forskolin (FSK) (Tocris) for 1 days; or 10 μM Mocetinostat or Pracinostat for 2 days, 10 μM Y27632, 10 μM SU9516, 10 μM Forskolin (FSK) (Tocris) for 1 days."}, "[2]": {"test_system": "human primary skin fibroblasts", "test": "Immunofluorescence assay of oligodendrocyte markers on induced cells", "type": "cell-based", "procedure": "as §1\nThe induced OLGs were fixed with 4% formaldehyde for […] at room temperature. After washing with 1×PBS, cells were permeabilized with 0.03% Triton X-100 for 5 min. The cells were washed twice with 1×PBS, and then were incubated with primary antibodies [against Olig2 antibody (1:100; Merck millipore), Nkx2.2 (1:100; Stanta Cruz), O4 antibody (1:100; Merck millipore), MBP antibody (1:100; Proteintech), PDGFRα antibody (1:100; R&D systems)] and 4′,6-diamidino-2-phenylindole (DAPI) (1:1500; Life technologies) in blocking buffer (0.02% BSA in PBS) for overnight at 4° C. Cells were washed twice in 1×PBS, followed by an incubation in CF555 goat anti-rabbit secondary antibody (1:200; Life technologies), CF488 goat anti-rabbit secondary antibody (1:200; Biotium), CF555 goat anti-mouse secondary antibody (1:200; Life technologies), CF488 goat anti-mouse secondary antibody (1:200; Biotium), CF555 goat anti-rat secondary antibody (1:200; Life technologies) in blocking buffer for 1 hr in the dark at room temperature. Cells were washed twice in 1×PBS, and the cells will be keeping in 1×PBS. Fluorescence was analyzed by using a fluorescence microscope. The fluorescence intensity of each image was analyzed by an image analysis software (Image-Pro plus 4.5 software, MD, USA). Each immunofluorescence image was quantified more than 300 cells per field."}}, "note": "Entries after “also recorded” stand apart in the source; their conditions may differ."}
{"smiles": "COc1ccc2c(c1)c(C1=C(c3c[nH]c4ccccc34)C(=O)NC1=O)cn2CCCN(C)C", "note": "[Go6983, 3-{1-[3-(Dimethylamino)propyl]-5-methoxy-1H-indol-3-yl}-4-(1H-indol-3-yl)-1H-pyrrole-2,5-dione]", "values": [{"measurement": "conversion of fibroblasts into OLG like cells", "setting": "[1]", "result": "dispensable for the conversion process"}, {"measurement": "dendrite-like formation", "setting": "[1]; Go6983 together with Y27632 and SU9516", "result": "promoted the dendrite-like formation"}]}
{"smiles": "Nc1ccccc1NC(=O)c1ccc(CNc2nccc(-c3cccnc3)n2)cc1", "note": "[Mocetinostat, N-(2-aminophenyl)-4-((4-(pyridin-3-yl)pyrimidin-2-ylamino)methyl)benzamide]", "values": [{"measurement": "morphology of induced OLGs when replacing VPA", "setting": "[1]", "result": "more mature oligodendroglia morphology"}, {"measurement": "MBP expression (immunofluorescence)", "setting": "[2]", "result": "expressed; also recorded: stronger expression"}, {"measurement": "O4 expression (immunofluorescence)", "setting": "[2]", "result": "expressed; also recorded: stronger expression"}]}
{"smiles": "CCCCc1nc2cc(/C=C/C(=O)NO)ccc2n1CCN(CC)CC", "note": "[Pracinostat, (E)-3-(2-butyl-1-(2-(diethylamino)ethyl)-1H-benzo[d]imidazol-5-yl)-N-hydroxyacrylamide]", "values": [{"measurement": "morphology of induced OLGs when replacing VPA", "setting": "[1]", "result": "more mature oligodendroglia morphology"}, {"measurement": "MBP expression (immunofluorescence)", "setting": "[2]", "result": "expressed; also recorded: stronger expression"}, {"measurement": "O4 expression (immunofluorescence)", "setting": "[2]", "result": "expressed; also recorded: stronger expression"}]}
{"smiles": "COc1ccc2c(c1)/C(=C/c1cnc[nH]1)C(=O)N2", "note": "[SU9516, (Z)-3-((1H-imidazol-5-yl)methylene)-5-methoxyindolin-2-one]", "values": [{"measurement": "morphological change of fibroblasts", "setting": "[1]", "result": "domed-shape formation"}]}
{"smiles": "C[C@@H](N)[C@H]1CC[C@H](C(=O)Nc2ccncc2)CC1", "note": "[Y27632, Trans-4-[(1R)-1-Aminoethyl]-N-(4-pyridinyl)cyclohexane-carboxamide]", "values": [{"measurement": "morphological change of fibroblasts", "setting": "[1]", "result": "dendritic-like morphological change"}]}
{"smiles": "C=C[C@@]1(C)CC(=O)[C@]2(O)[C@@]3(C)[C@@H](O)CCC(C)(C)[C@@H]3[C@H](O)[C@H](OC(C)=O)[C@@]2(C)O1", "note": "[forskolin, (3R,4aR,5S,6S,6aS,10S,10aR, 10bS)-6,10,10b-Trihydroxy-3,4a,7,7,10a-pentamethyl-1-oxo-3-vinyldodecahydro-1H-benzo[f]chromen-5-yl acetate]", "values": [{"measurement": "promotion of the conversion (screen for supporting factors)", "setting": "[1]; screen of 22 drugs on the YSG cocktail after pre-treating with VPA", "result": "significantly promoted the conversion"}]}
{"smiles": "CCCC(CCC)C(=O)O", "note": "[valproic acid, 2-Propylpentanoic acid]", "values": [{"measurement": "reprogramming efficiency", "setting": "[1]; pretreating for 2 days before Y27632, SU9516, Go6983", "result": "enhance the reprogramming efficiency"}]}
